The subject of assay [1] is hTERT gene. Nature of the assay: hTERT gene expression by RT-qPCR in HT-29 cells. Format: cell-based, human. The following applies: Homo sapiens, HT-29, 48 h, control 100; for mrna remaining at 0.015 µM: 15 nM; for mrna remaining at 0.0015 µM: 1.5 nM. The protocol: (§1) The effect on the expression of VEGF, hTERT and c-Myc genes has been studied for CA-4 and its derivatives that show selectivity indexes higher than 0.9 on the HT-29 cell line. The studied derivatives, together with the concentrations to which they have been tested, are CA-4 (15 μM); 4.1 (Gly, 5 μM); 4.5 (L-Pro, 25 μM); 4.9 (L-Met, 25 μM); 6.2 (D-Leu, 25 μM); 6.3 (D-Phe, 25 μM); 6.4 (D-Pro, 25 μM) and 6.5 (D-Ser, 10 μM). The expression of the genes was determined by RT-qPCR methodology, as described in the Materials and Methods section.
(§2) As regards AmCA-4 derivatives, the effect on the expression of the VEGF, hTERT and c-Myc genes has been studied on those that show IC50 in the low nanomolar range on the HT-29 cell line and/or on compounds whose selectivity indexes with respect to this cell line are higher than 1. The studied compounds, together with the concentrations to which they have been tested, are: CA-4 (15 μM), AmCA-4 (15 nM), 7.1 (7 nM), 7.2 (1.5 nM), 7.3 (4 nM), 7.4 (15 nM), 7.5 (2 nM), 7.7 (7 nM), 7.8 (15 nM), 7.9 (30 nM), 8.1 (7 nM), 8.2 (3 nM), 8.3 (10 nM), 8.4 (1.5 nM), 8.5 (4 nM), 8.7 (7 nM), 8.8 (3 nM) and 8.9 (4 nM).
(§3) HT-29 cells at 70–80% confluence were collected, and 1.5 × 10^5 cells were placed in a six-well plate in 1.5 mL of the medium. After 24 h, cells were incubated with the corresponding compounds for 48 h. Cells were collected, and the total cellular RNA from the HT-29 cells was isolated using an Ambion RNA Extraction Kit, according to the manufacturer’s instructions. The cDNA was synthesized by MMLV-RT with […] of extracted RNA and oligo(dT)15, according to the manufacturer’s instructions. Genes were amplified by a thermal cycler and StepOnePlus™ TaqMan® probes. TaqMan® Gene Expression Master Mix Fast, containing the appropriate buffer for the amplification conditions, dNTPs, thermostable DNA polymerase enzyme and a passive reference probe, was used. To amplify each of the genes, the predesigned primers sold by Life Technologies TaqMan® Gene Expression Assays Hs99999903-m1 (β-actin), Hs00900055-m1 (VEGF), Hs00972646-m1 (hTERT) and Hs00153408-m1 (c-Myc) were used.
On the technique in general: Real-time PCR tracks product formation cycle by cycle.

Assay [2] deals with c-Myc gene. The assay can be described thus: c-Myc gene expression by RT-qPCR in HT-29 cells. Format: cell-based, human. The following applies: HT-29, 48 h; for mrna remaining at 0.015 µM: 15 nM; for mrna remaining at 0.0015 µM: 1.5 nM. The protocol: as §1, §2, §3
For assay [3], the system named is VEGF gene. Nature of the assay: VEGF gene expression by RT-qPCR in HT-29 cells. Format: cell-based, human. Particulars: HT-29, 48 h; for mrna remaining at 0.015 µM: 15 nM; for mrna remaining at 0.0015 µM: 1.5 nM. The protocol:
as §1, §2, §3

The subject of assay [4] is HT-29 (human colon adenocarcinoma). Nature of the assay: Inhibition of cell proliferation (MTT), HT-29. Format: cell-based. The following applies: Homo sapiens, HT-29, 48 h, Table 2; 48 h of treatment (footnote); average ±SD of three experiments. The source says:
(§4) The ability of the synthetic compounds to inhibit cell proliferation was established by means of their IC50 values towards the tumor cell lines HT-29 (human colon adenocarcinoma), MCF-7 (breast adenocarcinoma) and A-549 (human pulmonary adenocarcinoma), as well as towards the nontumor cell line HEK-293 (human embryonic kidney cells). Results for compounds derived from CA-4 are presented in Table 1, along with the calculated selectivity indexes SIA (for HT-29 cell line), SIB (for MCF-7 cell line) and SIc (for A-549 cell line), obtained by dividing the IC50 values of the nontumor cell line (HEK-293) by those of the corresponding tumor cell line. The higher the SI index, the higher the therapeutic safety margin.
(§5) Cell culture media were purchased from Gibco (Grand Island, NY, USA). Fetal bovine serum (FBS) was a product of Harlan-Seralab (Belton, U.K.). Supplements and other chemicals not listed in this section were obtained from Sigma Chemical Co. (St. Louis, MO, USA). Plastics for cell culture were supplied by Thermo Fischer Scientific Inc., Madrid, Spain. All tested compounds were dissolved in DMSO at a concentration of 10 μg/mL and stored at −20 °C until use. HT-29, MCF-7, A-549 and HEK-293 cell lines were maintained in a Dulbecco’s modified Eagle’s medium (DMEM) containing glucose (1 g/L), glutamine (2 mM), penicillin (50 IU/mL), streptomycin (50 μg/mL) and amphotericin B (1.25 μg/mL), supplemented with 10% FBS. Cells from human non-small lung carcinoma (clone A549; ATCC n°: CCL2, MD, USA) were routinely grown at 37 °C in a humidified atmosphere of 5% CO2. Cells were maintained in a standard medium composed of RPMI 1640 (Lonza, Group Ltd., Basel, Switzerland), supplemented with 10% fetal bovine serum (FBS), 2 mM L-glutamine and 1% penicillin and streptomycin (Invitrogen). Cells were free from mycoplasma as determined by MycoAlert tests (Lonza, Group Ltd., Basel, Switzerland).
(§6) A total of 5 × 10^3 HT-29, MCF-7 or HEK-293 cells in a total volume of 100 μL of their respective growth media were incubated with serial dilutions of the tested compounds. The 3-(4,5-dimethylthiazol-2-yl)-2,5-diphenyltetrazolium bromide (MTT; Sigma Chemical Co.) dye reduction assay in a 96-well microplate was used, as previously described. […] The resulting formazan was dissolved in 150 μL of 0.04 N HCl/2-propanol and read at 550 nm. All determinations were carried out in triplicate.

Assay [5] concerns A-549 (human pulmonary adenocarcinoma). The assay can be described thus: Inhibition of cell proliferation (MTT), A-549. Format: cell-based. The following applies: Homo sapiens, A549, 48 h, Table 2; 48 h of treatment (footnote); average ±SD of three experiments.
Excerpt: as §4
as §5, with “Switzerland). […]” for “Switzerland).”

The subject of assay [6] is purified tubulin. The assay can be described thus: Critical concentration (CrC) for the assembly of purified tubulin in GAB. Format: biochemical. The following applies: compound 27.5 μM, tubulin 25 μM, glycerol (GAB) and GTP assembly buffer; control 7.9 ± 1.2. On the procedure: The effect on the self-assembly of tubulin was determined by measuring the critical concentration (CrC).

Assay [7] has as its system MCF-7 (breast adenocarcinoma). The assay can be described thus: Inhibition of cell proliferation (MTT), MCF-7. Format: cell-based, human. Particulars: Table 2, 48 h of treatment (footnote), average ±SD of three experiments.
Excerpt: as §4, §5, §6

The test system of assay [8] is HEK-293 (human embryonic kidney cells). The assay can be described thus: Inhibition of cell proliferation (MTT), nontumor HEK-293. Format: cell-based. The following applies: Table 2, 48 h of treatment (footnote), average ±SD of three experiments.
Excerpt: as §4, §5, §6

The subject of assay [9] is tubulin. Nature of the assay: In vitro tubulin polymerization by turbidimetry (It50). Format: biochemical. Particulars: turbidimetry at 350 nm, 37 °C. The protocol:
Figure 3 also includes polymerization curves in the presence of CA-4, AmCA-4 and paclitaxel. This test was also performed using paclitaxel, a microtubule stabilizing agent, as a control for the complete formation of microtubules (see Figure 3).

The test system of assay [10] is A-549 cells. Nature of the assay: Cell cycle distribution by flow cytometry. Format: cell-based, human. The following applies: A-549, 24 h, 0.5 µM. The protocol: The effects of some CA-4 derivatives on the cell cycle were evaluated in A-549 cells.
The effects of some AmCA-4 derivatives on the cell cycle were also evaluated in A-549 cells.
The supernatant and trypsinated cells were harvested and then centrifuged (1200 rpm, 5 min, 4 °C). The cell pellet was resuspended in 1 mL of cold 70% ethanol for 30 min at −20 °C. Cells were centrifuged (2000 rpm, 5 min, 4 °C) to remove ethanol, and then the cell pellet was resuspended in the staining mix containing 50 µg/mL propidium iodide (Molecular Probes, France) and 100 µg/mL RNAse A (Sigma, France) in PBS for 20 min at room temperature in darkness. Samples were analyzed on a Becton Dickinson FACScan flow cytometer using the CellQuest software, which was also used to determine the percentage of cells in the G2/M phases of the cell cycle. PI was excited at 488 nm, and fluorescence analyzed at 620 nm on channel Fl-2.
Background: Flow cytometry measures light scatter and fluorescence of single cells or particles in a stream.

Setting [11] is: Homo sapiens, 4 nM, control 100.
The mark [12] stands for this setting: Homo sapiens, 3 nM, control 100.
Where [13] appears, read: discussion, concentration per compound.

As a reminder, the IC50 is the concentration that gives 50% inhibition. Higher therefore signals lower potency. Regarding `COc1ccc(/C=C\c2cc(OC)c(OC)c(OC)c2)cc1NC(=O)[C@H](Cc1ccc(O)cc1)NC(=O)OCC1c2ccccc2-c2ccccc21` [Compound 7.8], the mrna remaining at 0.015 µM in assay [1] was 76%; in [2] (Homo sapiens, control 100) it was above 100%; in assay [3] (Homo sapiens, control 100) it was 51%. The IC50 in assay [4] is 18 ± 5 nM; in assay [5], 8900 ± 1200 nM; in [7] (Homo sapiens, MCF7, 48 h), 12 ± 2 nM; in assay [8] (Homo sapiens, HEK293, 48 h) it was 16 ± 2 nM. For the same molecule, the “CrC (critical concentration)” value in assay [6] was determined as 10.1 ± 1.1 µM.
On to `COc1ccc(/C=C\c2cc(OC)c(OC)c(OC)c2)cc1NC(=O)[C@@H](NC(=O)OCC1c2ccccc2-c2ccccc21)C(C)C` [Compound 7.3], for which the mrna remaining at 0.004 µM in [1] (4 nM) was above 100%; in assay [2] (setting [11]), 63%; in [3] (setting [11]), 23%. Besides, the IC50 in assay [4] amounted to 130 ± 40 nM; in [5], 870 ± 60 nM; in assay [7] (Homo sapiens, MCF7, 48 h) it was 100 ± 50 nM; in [8] (Homo sapiens, HEK293, 48 h), 60 ± 20 nM. Besides, the “CrC (critical concentration)” value in assay [6] was 6.9 ± 0.3 µM.
`COc1ccc(/C=C\c2cc(OC)c(OC)c(OC)c2)cc1NC(=O)[C@H](CC(C)C)NC(=O)OCC1c2ccccc2-c2ccccc21` [Compound 7.4]: the mrna remaining at 0.015 µM in assay [1] came to 96%; in assay [2] (Homo sapiens, control 100) it was 94%; in [3] (Homo sapiens, control 100), 58%. Besides, the IC50 in assay [4] was 23 ± 10 nM; in [5] it was 490 ± 13 nM; in assay [7] (Homo sapiens, MCF7, 48 h) it was 9 ± 2 nM; in assay [8] (Homo sapiens, HEK293, 48 h), 14 ± 3 nM. Besides, the “CrC (critical concentration)” value in assay [6] is listed as 9.9 ± 0.8 µM.
Turning to `CC(=O)O[C@H]1C(=O)[C@@]2(C)[C@H]([C@H](OC(=O)c3ccccc3)[C@]3(O)C[C@H](OC(=O)[C@H](O)[C@@H](NC(=O)c4ccccc4)c4ccccc4)C(C)=C1C3(C)C)[C@]1(OC(C)=O)CO[C@@H]1C[C@@H]2O` [Paclitaxel, paclitaxel, reference compound], in assay [9], the “time to reach the plateau phase of polymerization” value was found to be 30 min. In addition, the “It50 (time required to reach 50% of the polymerization)” value in assay [9] (control 16.6 ± 1.0) came out at 3.2 ± 0.4 min. In addition, the “Effect on in vitro tubulin polymerization” value in assay [9] (result in words) was “promotes tubulin polymerization”.
For `COc1ccc(/C=C\c2cc(OC)c(OC)c(OC)c2)cc1NC(=O)[C@@H](N)Cc1ccc(O)cc1` [Compound 8.8], the mrna remaining at 0.003 µM in [1] (3 nM) stood at 46%; in assay [2] (setting [12]), 42%; in assay [3] (setting [12]), 72%. Also, the IC50 is 206 ± 20 nM in [5]; below 5 nM in assay [7] (Homo sapiens, MCF7, 48 h); 4.9 ± 0.2 nM in assay [7]; below 5 nM in assay [8] (Homo sapiens, HEK293, 48 h); 2.7 ± 1.4 nM in assay [8]. The molecule also came in with a G0/G1 in assay [10] of 30 ± 2%. The same molecule returned a G2/M in assay [10] of 52 ± 3%. Besides, the S in [10] amounted to 18 ± 1%. Besides, the “CrC (critical concentration)” value in assay [6] is given as 7.7 ± 0.8 µM.
`COc1ccc(/C=C\c2cc(OC)c(OC)c(OC)c2)cc1NC(=O)[C@H](C)NC(=O)OCC1c2ccccc2-c2ccccc21` [Compound 7.2]: the mrna remaining at 0.0015 µM in assay [1] came to 79%; in [2] (Homo sapiens, control 100), 22%; in [3] (Homo sapiens, control 100) it was 25%. Moreover, the “downregulation of c-Myc gene expression” value in [2] (setting [13]) is on record as “more than 60%”. Also, in assay [3] (setting [13]), the “downregulation of VEGF gene expression” value was “more than 60%”. Also, half-maximal inhibition in assay [5] (IC50) required 242 ± 13 nM. Moreover, the G0/G1 in assay [10] is recorded as 28 ± 1%. In assay [10], this molecule had a G2/M of 53 ± 2%. Moreover, the S in [10] was 19 ± 2%. Moreover, the “CrC (critical concentration)” value in assay [6] came to 9.4 ± 0.3 µM.
Molecule `COc1ccc(/C=C\c2cc(OC)c(OC)c(OC)c2)cc1NC(=O)[C@@H](N)CC(C)C` [Compound 8.4] came in with a mrna remaining at 0.0015 µM in [1] of 73%. This molecule gave a mrna remaining at 0.0015 µM in [2] (Homo sapiens, control 100) of 48%. The molecule also gave a mrna remaining at 0.0015 µM in assay [3] (Homo sapiens, control 100) of 67%. The IC50 in assay [5] was determined as 167 ± 23 nM. In assay [10], this molecule displayed a G0/G1 of 35 ± 1%, a G2/M of 48 ± 1% and an S of 17 ± 2%. Besides, the “CrC (critical concentration)” value in [6] was 8.3 ± 0.3 µM.

(Values after paper PMC7037732, “Synthesis of Combretastatin A-4 and 3′-Aminocombretastatin A-4 derivatives with Aminoacid Containing Pendants and Study of their Interaction with Tubulin and as Downregulators of the VEGF, hTERT and c-Myc Gene Expression” (Molecules, 2020).)
